Results taken from patent US11807650B2, “NMDA receptor modulators and uses thereof” (Novartis AG, priority 2016, dated 2023).
Structures can show the parent of a compound that is named as a salt.

Molecular target: T1, human GRIN1 (transcript variant NR1-3) and GRIN2D expressed in Xenopus oocytes (Homo sapiens, UniProt O15399)
T1 construct: GenScript (GRIN2D synthesis) SC115601; host or cells: Xenopus oocytes injected with cRNA (1 GluN1 : 2 GluN2)
Assay: NR2D oocyte potentiation assay (two-electrode voltage clamp)
Assay type: cell-based
Details: 10 uM test compound; glutamate and glycine 10 μM each; holding potential −40 mV
How it was run: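 Xenopus oocytes were defolliculated with collagenase, then injected with 50 nL of cRNA encoding human GluN1 (NR1-3 variant) and GluN2D mixed 1:2 and kept 72 h at 16° C. Two-electrode voltage clamp at −40 mV recorded currents; after 10 μM glutamate plus 10 μM glycine reached plateau, test compound was added until a new plateau formed.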

T1 sequence (O15399 28-1336, other chains not shown): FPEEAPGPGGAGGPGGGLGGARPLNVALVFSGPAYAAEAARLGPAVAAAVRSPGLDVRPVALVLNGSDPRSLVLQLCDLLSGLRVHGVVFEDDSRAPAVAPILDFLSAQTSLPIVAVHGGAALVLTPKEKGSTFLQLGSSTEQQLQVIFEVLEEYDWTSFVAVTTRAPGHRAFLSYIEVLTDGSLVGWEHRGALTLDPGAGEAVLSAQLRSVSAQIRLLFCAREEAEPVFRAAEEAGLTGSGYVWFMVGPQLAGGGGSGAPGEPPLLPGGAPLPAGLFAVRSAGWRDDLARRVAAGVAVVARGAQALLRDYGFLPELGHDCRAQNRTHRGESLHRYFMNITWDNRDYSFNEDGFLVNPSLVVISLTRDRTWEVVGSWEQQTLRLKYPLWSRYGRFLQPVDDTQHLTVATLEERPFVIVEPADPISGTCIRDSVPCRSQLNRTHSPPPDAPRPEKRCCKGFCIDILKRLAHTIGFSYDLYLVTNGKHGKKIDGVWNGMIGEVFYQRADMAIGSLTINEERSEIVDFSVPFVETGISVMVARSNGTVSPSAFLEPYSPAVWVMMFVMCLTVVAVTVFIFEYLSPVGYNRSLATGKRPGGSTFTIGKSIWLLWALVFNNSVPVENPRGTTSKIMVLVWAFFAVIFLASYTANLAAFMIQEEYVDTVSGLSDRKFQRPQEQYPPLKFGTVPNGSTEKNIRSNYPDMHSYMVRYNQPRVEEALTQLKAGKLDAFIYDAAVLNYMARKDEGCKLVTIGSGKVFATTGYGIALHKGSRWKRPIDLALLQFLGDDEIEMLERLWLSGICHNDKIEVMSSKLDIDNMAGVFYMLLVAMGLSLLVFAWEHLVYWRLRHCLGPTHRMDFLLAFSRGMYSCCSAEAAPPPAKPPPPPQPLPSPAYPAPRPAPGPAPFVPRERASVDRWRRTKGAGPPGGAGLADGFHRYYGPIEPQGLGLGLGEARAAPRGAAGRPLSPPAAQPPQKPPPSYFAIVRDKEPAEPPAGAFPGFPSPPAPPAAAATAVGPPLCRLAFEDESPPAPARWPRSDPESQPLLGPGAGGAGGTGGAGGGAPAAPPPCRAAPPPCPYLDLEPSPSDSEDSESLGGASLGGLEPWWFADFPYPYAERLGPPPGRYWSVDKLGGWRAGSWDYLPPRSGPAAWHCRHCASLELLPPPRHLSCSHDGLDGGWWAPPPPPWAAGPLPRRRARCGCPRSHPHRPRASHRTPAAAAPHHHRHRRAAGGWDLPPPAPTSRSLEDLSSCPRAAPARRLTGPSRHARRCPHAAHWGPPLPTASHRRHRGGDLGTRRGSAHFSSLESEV

| SMILES | activation at 10 µM [%] | NR2D Oocyte % Potentiation @ 10 uM |
| --- | --- | --- |
| C=C1CSc2nc(-c3ccc(C(C)(C)C)nc3)c(C#N)c(=O)n2C1 [Example 114, 8-(6-(tert-butyl)pyridin-3-yl)-3-methylene-6-oxo-3,4-dihydro-2H,6H-pyrimido[2,1-b][1,3]thiazine-7-carbonitrile] | > 1000 | – |
| C[C@H]1CSc2nc(-c3ccc(C4(C)CC4)nc3)c(C#N)c(=O)n2C1 [Example 115, (R)-3-methyl-8-(6-(1-methylcyclopropyl)pyridin-3-yl)-6-oxo-3,4-dihydro-2H,6H-pyrimido[2,1-b][1,3]thiazine-7-carbonitrile] | 100 to 500 | – |
| C[C@@H]1CSc2nc(-c3ccc(C4(C)CC4)nc3)c(C#N)c(=O)n2C1 [Example 116, (S)-3-methyl-8-(6-(1-methylcyclopropyl)pyridin-3-yl)-6-oxo-3,4-dihydro-2H,6H-pyrimido[2,1-b][1,3]thiazine-7-carbonitrile] | > 1000 | – |
| C[C@H]1CSc2cc(-c3ccc(C4(C)CC4)nc3)c(C#N)c(=O)n2C1 [Example 117, (R)-3-methyl-8-(6-(1-methylcyclopropyl)pyridin-3-yl)-6-oxo-3,4-dihydro-2H,6H-pyrido[2,1-b][1,3]thiazine-7-carbonitrile] | > 1000 | – |
| C[C@@H]1CSc2cc(-c3ccc(C4(C)CC4)nc3)c(C#N)c(=O)n2C1 [Example 118, (S)-3-methyl-8-(6-(1-methylcyclopropyl)pyridin-3-yl)-6-oxo-3,4-dihydro-2H,6H-pyrido[2,1-b][1,3]thiazine-7-carbonitrile] | > 1000 | – |
| COC(C)(C)c1ccc(-c2nc3n(c(=O)c2C#N)CC(C)CS3)cn1 (centres unmarked) [Example 119, 8-(6-(2-methoxypropan-2-yl)pyridin-3-yl)-3-methyl-6-oxo-3,4-dihydro-2H,6H-pyrimido[2,1-b][1,3]thiazine-7-carbonitrile] | 10 to 100 | – |
| COC(C)(C)c1ccc(-c2nc3n(c(=O)c2C#N)CCCS3)cn1 [Example 120] | 10 to 100 | – |
| CCOC(C)(C)c1ccc(-c2nc3n(c(=O)c2C#N)CC(C)CS3)cn1 (centres unmarked) [Example 121, 8-(6-(2-ethoxypropan-2-yl)pyridin-3-yl)-3-methyl-6-oxo-3,4-dihydro-2H,6H-pyrimido[2,1-b][1,3]thiazine-7-carbonitrile] | – | Inhibitor |
| CCOC(C)(C)c1ccc(-c2nc3n(c(=O)c2C#N)CCCS3)cn1 [Example 122, 8-(6-(2-ethoxypropan-2-yl)pyridin-3-yl)-6-oxo-3,4-dihydro-2H,6H-pyrimido[2,1-b][1,3]thiazine-7-carbonitrile] | – | Inhibitor |
| COCC1CSc2nc(-c3ccc(C(C)(C)C)nc3)c(C#N)c(=O)n2C1 (centres unmarked) [Example 123, 8-(6-(tert-butyl)pyridin-3-yl)-3-(methoxymethyl)-6-oxo-3,4-dihydro-2H,6H-pyrimido[2,1-b][1,3]thiazine-7-carbonitrile] | 500 to 1000 | – |
| COCC1CSc2nc(-c3cnc(C(C)(C)C)nc3)c(C#N)c(=O)n2C1 (centres unmarked) [Example 124, 8-(2-(tert-butyl)pyrimidin-5-yl)-3-(methoxymethyl)-6-oxo-3,4-dihydro-2H,6H-pyrimido[2,1-b][1,3]thiazine-7-carbonitrile] | 500 to 1000 | – |
| COCC1CSc2nc(-c3cnc(C(C)(C)C)c(F)c3)c(C#N)c(=O)n2C1 (centres unmarked) [Example 125, 8-(6-(tert-butyl)-5-fluoropyridin-3-yl)-3-(methoxymethyl)-6-oxo-3,4-dihydro-2H,6H-pyrimido[2,1-b][1,3]thiazine-7-carbonitrile] | > 1000 | – |
| CC1CSc2nc(-c3cnc(C(C)(C)C)c(O)c3)c(C#N)c(=O)n2C1 (centres unmarked) [Example 126, 8-(6-(tert-butyl)-5-hydroxypyridin-3-yl)-3-methyl-6-oxo-3,4-dihydro-2H,6H-pyrimido[2,1-b][1,3]thiazine-7-carbonitrile] | > 1000 | – |
| CC(C)(C)c1ncc(-c2nc3n(c(=O)c2C#N)CCCS3)cc1O [Example 127, 8-(6-(tert-butyl)-5-hydroxypyridin-3-yl)-6-oxo-3,4-dihydro-2H,6H-pyrimido[2,1-b][1,3]thiazine-7-carbonitrile] | > 1000 | – |

Next, values leading:

| activation at 10 µM [%] | NR2D Oocyte % Potentiation @ 10 uM | SMILES |
| --- | --- | --- |
| < 10 | – | CN(C)C(C)(C)c1ccc(-c2nc3n(c(=O)c2C#N)CCCS3)cn1 [Example 128, 8-(6-(2-(dimethylamino)propan-2-yl)pyridin-3-yl)-6-oxo-3,4-dihydro-2H,6H-pyrimido[2,1-b][1,3]thiazine-7-carbonitrile] |
| > 1000 | – | CC(C)(C)c1ccc(-c2nc3n(c(=O)c2C#N)C[C@@H](CO)CS3)cn1 [Example 129, (S)-8-(6-(tert-butyl)pyridin-3-yl)-3-(hydroxymethyl)-6-oxo-3,4-dihydro-2H,6H-pyrimido[2,1-b][1,3]thiazine-7-carbonitrile] |
| 100 to 500 | – | CC(C)(C)c1ccc(-c2nc3n(c(=O)c2C#N)C[C@H](CO)CS3)cn1 [Example 130, (R)-8-(6-(tert-butyl)pyridin-3-yl)-3-(hydroxymethyl)-6-oxo-3,4-dihydro-2H,6H-pyrimido[2,1-b][1,3]thiazine-7-carbonitrile] |
| > 1000 | – | CC(C)(C)c1ccc(-c2nc3n(c(=O)c2C#N)C[C@@H](CF)CS3)cn1 [Example 131, (S)-8-(6-(tert-butyl)pyridin-3-yl)-3-(fluoromethyl)-6-oxo-3,4-dihydro-2H,6H-pyrimido[2,1-b][1,3]thiazine-7-carbonitrile] |
| 100 to 500 | – | CC(C)(C)c1ccc(-c2nc3n(c(=O)c2C#N)C[C@H](CF)CS3)cn1 [Example 132, (R)-8-(6-(tert-butyl)pyridin-3-yl)-3-(fluoromethyl)-6-oxo-3,4-dihydro-2H,6H-pyrimido[2,1-b][1,3]thiazine-7-carbonitrile] |
| – | Inhibitor | C[C@H]1CSc2nc(-c3ccc(C(C)(C)N(C)C)nc3)c(C#N)c(=O)n2C1 [Example 133, (R)-8-(6-(2-(dimethylamino)propan-2-yl)pyridin-3-yl)-3-methyl-6-oxo-3,4-dihydro-2H,6H-pyrimido[2,1-b][1,3]thiazine-7-carbonitrile] |
| < 10 | – | C[C@@H]1CSc2nc(-c3ccc(C(C)(C)N(C)C)nc3)c(C#N)c(=O)n2C1 [Example 134, (S)-8-(6-(2-(dimethylamino)propan-2-yl)pyridin-3-yl)-3-methyl-6-oxo-3,4-dihydro-2H,6H-pyrimido[2,1-b][1,3]thiazine-7-carbonitrile] |
| > 1000 | – | CC1CSc2cc(-c3cnc(C4(C)CC4)c(F)c3)c(C#N)c(=O)n2C1 (centres unmarked) [Example 135, 8-(5-fluoro-6-(1-methylcyclopropyl)pyridin-3-yl)-3-methyl-6-oxo-3,4-dihydro-2H,6H-pyrido[2,1-b][1,3]thiazine-7-carbonitrile] |
| > 1000 | – | CC1(c2ncc(-c3cc4n(c(=O)c3C#N)CCCS4)cc2F)CC1 [Example 136, 8-[5-fluoro-6-(1-methyl-cyclopropyl)pyridin-3-yl]-6-oxo-2H,3H,4H,6H-pyrido [2,1-b][1,3] thiazine-7-carbonitrile] |
| 100 to 500 | – | CC(C)(C)c1ncc(-c2nc3n(c(=O)c2C#N)C[C@@H](CO)CS3)cn1 [Example 137, (S)-8-(2-(tert-butyl)pyrimidin-5-yl)-3-(hydroxymethyl)-6-oxo-3,4-dihydro-2H,6H-pyrimido[2,1-b][1,3]thiazine-7-carbonitrile] |
| > 1000 | – | CC(C)(C)c1ncc(-c2nc3n(c(=O)c2C#N)C[C@H](CO)CS3)cn1 [Example 138, (R)-8-(2-(tert-butyl)pyrimidin-5-yl)-3-(hydroxymethyl)-6-oxo-3,4-dihydro-2H,6H-pyrimido[2,1-b][1,3]thiazine-7-carbonitrile] |
| > 1000 | – | C[C@H]1CSc2nc(-c3cnc(C(C)(C)C)c(O)c3)c(C#N)c(=O)n2C1 [Example 139, (R)-8-(6-(tert-butyl)-5-hydroxypyridin-3-yl)-3-methyl-6-oxo-3,4-dihydro-2H,6H-pyrimido[2,1-b][1,3]thiazine-7-carbonitrile] |
| 500 to 1000 | – | C[C@@H]1CSc2nc(-c3cnc(C(C)(C)C)c(O)c3)c(C#N)c(=O)n2C1 [Example 140, (S)-8-(6-(tert-butyl)-5-hydroxypyridin-3-yl)-3-methyl-6-oxo-3,4-dihydro-2H,6H-pyrimido[2,1-b][1,3]thiazine-7-carbonitrile] |
| 500 to 1000 | – | CC(C)(C)c1ncc(-c2nc3n(c(=O)c2C#N)C[C@@H](CF)CS3)cn1 [Example 141, (S)-8-(2-(tert-butyl)pyrimidin-5-yl)-3-(fluoromethyl)-6-oxo-3,4-dihydro-2H,6H-pyrimido[2,1-b][1,3]thiazine-7-carbonitrile] |
| 500 to 1000 | – | CC(C)(C)c1ncc(-c2nc3n(c(=O)c2C#N)C[C@H](CF)CS3)cn1 [Example 142, (R)-8-(2-(tert-butyl)pyrimidin-5-yl)-3-(fluoromethyl)-6-oxo-3,4-dihydro-2H,6H-pyrimido[2,1-b][1,3]thiazine-7-carbonitrile] |
| 100 to 500 | – | CC(C)(C)c1ccc(-c2nc3n(c(=O)c2C#N)CC(C(F)(F)F)CS3)cn1 (centres unmarked) [Example 143, 8-(6-(tert-butyl)pyridin-3-yl)-6-oxo-3-(trifluoromethyl)-3,4-dihydro-2H,6H-pyrimido[2,1-b][1,3]thiazine-7-carbonitrile] |
| > 1000 | – | CC(C)(C)OC(=O)NCC1CSc2nc(-c3ccc(C(C)(C)C)nc3)c(C#N)c(=O)n2C1 (centres unmarked) [Example 144, tert-butyl ((8-(6-(tert-butyl)pyridin-3-yl)-7-cyano-6-oxo-3,4-dihydro-2H,6H-pyrimido[2,1-b][1,3]thiazin-3-yl)methyl)carbamate] |
| 10 to 100 | – | CC(C)(C)c1ccc(-c2nc3n(c(=O)c2C#N)CC(CN)CS3)cn1 (centres unmarked) [Example 145, 3-(aminomethyl)-8-(6-(tert-butyl)pyridin-3-yl)-6-oxo-3,4-dihydro-2H,6H-pyrimido[2,1-b][1,3]thiazine-7-carbonitrile hydrochloride] |
